In US20250275539A1, “APYRASE INHIBITORS” (Texas Crop Science, Inc., priority 2024, published 2025):

test system: apyrase; assay: Apyrase inhibition assay (screen for apyrase inhibitors, phosphate release read at 630 nm); assay type: biochemical; conditions: inhibitor conc at 1 mM (10 μl added), 3 mM ATP, pH 6.5, room temperature 1 hr
Protocol: Apyrase inhibitors useful as enhancers of pesticidal activity are assessed using an in vitro assay. The method of Windsor, Bio Techniques 33:1024-1030 (November 2002) was used as follows
• 96 well plates were used for the assay: (Greiner bio-one: REF-655901-96 well, PS, F-bottom, Clear, Non-binding)
• Reaction Buffer: 60 mM Hepes; 3 mM MgCl2, 3 mM CaCl2) and 3 mM ATP (pH 6.5) • Development Buffer A: 2% aqueous ammonium molybdate • Development Buffer B: 11% ascorbic acid in 37.5% TCA in water • Stop buffer C: 2% trisodium citrate in 2% acetic acid solution in water
• Add 100 μl of reaction buffer to each well. • Add 10 μl of DMSO (control) or inhibitor/compound or compounds such as N1915 or orthovanadate to each well. (use inhibitor conc at 1 mM; orthovanadate at 2 mM and N1915 at 1 mM) • Add 10 μl of apyrase (concentration based on optimization—Dilute 1 U/μl enzyme to different concentrations such as 0.1 U, 0.05 U, 0.0025, 0.001 U, 0.0005 U—to find a good range) • Incubate plate at room temperature for 1 hr • Mix development buffer A and B in the ratio of 1:1.5 (just before use). • Add 50 μl of A: B mix in each well (incubate for 2 mins) • Add 50 μl of C in each well • Measure/Read Absorbance of plate @630 nm
Inhibitory data for the apyrase assay described above are provided for selected compounds in Table 3. D is inhibition of 0% to 10%, C is inhibition from 10% to 20%, B is inhibition from 20% to 30%, and A is inhibition above 30%. Blank entries signify compounds that were not tested.

Row | SMILES | Inhibition
1 | Cl.NCCNS(=O)(=O)c1ccc(-c2ccccc2)cc1 [Compound A-15, N-(2-aminoethyl)-[1,1′-biphenyl]-4-sulfonamide hydrochloride] | D (D is inhibition of 0% to 10%)
2 | CCCc1ccc(S(=O)(=O)Nc2ccccc2Cn2cncn2)cc1 [Compound A-113, N-(2-((1H-1,2,4-triazol-1-yl)methyl)phenyl)-4-propylbenzenesulfonamide] | D (D is inhibition of 0% to 10%)
3 | CCCc1ccc(S(=O)(=O)Nc2cc(OC)c(OC)cc2C(=O)O)cc1 [Compound A-45, 4,5-dimethoxy-2-((4-propylphenyl)sulfonamido) benzoic acid] | C (C is inhibition from 10% to 20%)
4 | Cc1cccc(NS(=O)(=O)c2ccc(F)cc2)c1 [Compound A-58, 4-fluoro-N-(m-tolyl)benzenesulfonamide] | D (D is inhibition of 0% to 10%)
5 | CCCc1ccc(S(=O)(=O)Nc2cc(OC)c(OC)cc2C(=O)OC)cc1 [Compound A-96, methyl 4,5-dimethoxy-2-((4-propylphenyl)sulfonamido) benzoate] | C (C is inhibition from 10% to 20%)
6 | CCCc1ccc(S(=O)(=O)Nc2c(F)cc(F)cc2Br)cc1 [Compound A-51, N-(2-bromo-4,6-difluorophenyl)-4-propylbenzenesulfonamide] | D (D is inhibition of 0% to 10%)
7 | CCCc1ccc(S(=O)(=O)Nc2ccc(-c3ccnc(C)n3)cc2)cc1 [Compound A-40, N-(4-(2-methylpyrimidin-4-yl)phenyl)-4-propylbenzenesulfonamide] | D (D is inhibition of 0% to 10%)
8 | CCN1CCCC(NS(=O)(=O)c2ccc(-c3ccccc3)cc2)C1 (stereo not drawn) [Compound A-117, N-(1-ethylpiperidin-3-yl)-[1,1′-biphenyl]-4-sulfonamide] | D (D is inhibition of 0% to 10%)
9 | CCCc1ccc(S(=O)(=O)Nc2cc(Cl)ccc2N2CCOCC2)cc1 [Compound A-47, N-(5-chloro-2-morpholinophenyl)-4-propylbenzenesulfonamide] | B (B is inhibition from 20% to 30%)
10 | CCCc1ccc(S(=O)(=O)Nc2ccc(S(=O)(=O)Nc3nccs3)cc2)cc1 [Compound A-85, 4-propyl-N-(4-(N-(thiazol-2-yl)sulfamoyl)phenyl)benzene-sulfonamide] | D (D is inhibition of 0% to 10%)
11 | CCCc1ccc(S(=O)(=O)Nc2cc(OC)c(Cl)cc2OC)cc1 [Compound A-68, N-(4-chloro-2,5-dimethoxyphenyl)-4-propylbenzenesulfonamide] | D (D is inhibition of 0% to 10%)
12 | CCCc1ccc(S(=O)(=O)Nc2ccc(-c3nc(C)cc(=O)[nH]3)cc2)cc1 [Compound A-120, N-(4-(4-methyl-6-oxo-1,6-dihydropyrimidin-2-yl)phenyl)-4-propylbenzenesulfonamide] | B (B is inhibition from 20% to 30%)
13 | CCCc1ccc(S(=O)(=O)Nc2ccc(-c3nnc4n3CCCCC4)cc2)cc1 [Compound A-93, 4-propyl-N-(4-(6,7,8,9-tetrahydro-5H-[1,2,4]triazolo[4,3-a]azepin-3-yl)phenyl) benzenesulfonamide] | D (D is inhibition of 0% to 10%)
14 | Cc1cccc(NS(=O)(=O)c2ccc(C(=O)O)cc2)c1 [Compound A-65, 4-(N-(m-tolyl)sulfamoyl)benzoic acid] | B (B is inhibition from 20% to 30%)
15 | O=S(=O)(NCc1ccc2c(c1)OCO2)c1ccc(-c2ccccc2)cc1 [Compound A-36, N-(benzo[d][1,3]dioxol-5-ylmethyl)-[1,1′-biphenyl]-4-sulfonamide] | A (A is inhibition above 30%)
16 | CCCc1ccc(S(=O)(=O)Nc2ccccc2-n2cnnc2C)cc1 [Compound A-22, N-(2-(3-methyl-4H-1,2,4-triazol-4-yl)phenyl)-4-propylbenzenesulfonamide] | D (D is inhibition of 0% to 10%)
17 | O=S(=O)(Nc1ncccn1)c1ccc(-c2ccccc2)cc1 [Compound A-20, N-(pyrimidin-2-yl)-[1,1′-biphenyl]-4-sulfonamide] | D (D is inhibition of 0% to 10%)
18 | COc1ccc(OC)c(NS(=O)(=O)c2ccc(-c3ccccc3)cc2)c1 [Compound A-4, N-(2,5-dimethoxyphenyl)-[1,1′-biphenyl]-4-sulfonamide] | B (B is inhibition from 20% to 30%)
19 | CCCc1ccc(S(=O)(=O)Nc2cc(S(=O)(=O)N3CCCCC3)ccc2C)cc1 [Compound A-90, N-(2-methyl-5-(piperidin-1-ylsulfonyl)phenyl)-4-propylbenzenesulfonamide] | A (A is inhibition above 30%)
20 | CCCc1ccc(S(=O)(=O)Nc2ccccc2N2CCCC2=O)cc1 [Compound A-6, N-(2-(2-oxopyrrolidin-1-yl)phenyl)-4-propylbenzenesulfonamide] | D (D is inhibition of 0% to 10%)
21 | CCCc1ccc(S(=O)(=O)Nc2ccccc2Sc2nncn2C)cc1 [Compound A-27, N-(2-((4-methyl-4H-1,2,4-triazol-3-yl)thio)phenyl)-4-propylbenzenesulfonamide] | D (D is inhibition of 0% to 10%)
22 | N#Cc1cnc(Cl)c(NS(=O)(=O)c2ccc(-c3ccccc3)cc2)c1 [Compound A-24, N-(2-chloro-5-cyanopyridin-3-yl)-[1,1′-biphenyl]-4-sulfonamide] | C (C is inhibition from 10% to 20%)
23 | CCCc1ccc(S(=O)(=O)Nc2ccccc2-n2cnnn2)cc1 [Compound A-109, N-(2-(1H-tetrazol-1-yl)phenyl)-4-propylbenzenesulfonamide] | C (C is inhibition from 10% to 20%)
24 | Cc1cccc(NS(=O)(=O)c2ccccc2)c1 [Compound A-57, N-(m- tolyl)benzenesulfonamide] | D (D is inhibition of 0% to 10%)
25 | CCCc1ccc(S(=O)(=O)Nc2cccc(-c3nnnn3C3CC3)c2)cc1 [Compound A-28, N-(3-(1-cyclopropyl-1H-tetrazol-5-yl)phenyl)-4-propylbenzenesulfonamide] | D (D is inhibition of 0% to 10%)

Next, values leading:

Row | Inhibition | SMILES
26 | A (A is inhibition above 30%) | CCCc1ccc(S(=O)(=O)Nc2ccc3c(c2)CCN3C(C)=O)cc1 [Compound A-115, N-(1-acetylindolin-5-yl)-4-propylbenzenesulfonamide]
27 | C (C is inhibition from 10% to 20%) | CCCc1ccc(S(=O)(=O)Nc2ccc(S(=O)(=O)N(C)C)cc2)cc1 [Compound A-97, N,N-dimethyl-4-((4-propylphenyl)sulfonamido) benzenesulfonamide]
28 | D (D is inhibition of 0% to 10%) | CCCc1ccc(S(=O)(=O)Nc2ccc3[nH]ncc3c2)cc1 [Compound A-69, N-(1H-indazol-5-yl)-4-propylbenzenesulfonamide]
29 | D (D is inhibition of 0% to 10%) | CCCc1ccc(S(=O)(=O)Nc2ccc(NC(=O)C3CC3)cc2)cc1 [Compound A-31, N-(4-((4-propylphenyl)sulfonamido)phenyl)cyclopropanecarbox-amide]
30 | C (C is inhibition from 10% to 20%) | CCCc1ccc(S(=O)(=O)Nc2c(F)cccc2F)cc1 [Compound A-87, N-(2,6-difluorophenyl)-4-propylbenzenesulfonamide]
31 | D (D is inhibition of 0% to 10%) | CCCc1ccc(S(=O)(=O)Nc2ccc(S(=O)(=O)NC)cc2)cc1 [Compound A-80, N-methyl-4-((4-propylphenyl)sulfonamido) benzenesulfonamide]
32 | C (C is inhibition from 10% to 20%) | CCCc1ccc(S(=O)(=O)Nc2ccc(S(C)(=O)=O)cc2)cc1 [Compound A-50, N-(4-(methylsulfonyl)phenyl)-4-propylbenzenesulfonamide]
33 | D (D is inhibition of 0% to 10%) | CCCc1ccc(S(=O)(=O)Nc2ccc(C(N)=O)cc2)cc1 [Compound A-81, 4-((4-propylphenyl)sulfonamido) benzamide]
34 | C (C is inhibition from 10% to 20%) | COC(=O)c1ccc(S(=O)(=O)Nc2cccc(C)c2)cc1 [Compound A-12, methyl 4-(N-(m-tolyl)sulfamoyl)benzoate]
35 | C (C is inhibition from 10% to 20%) | CCCc1ccc(S(=O)(=O)Nc2ccccc2C(=O)OC)cc1 [Compound A-53, methyl 2-((4-propylphenyl)sulfonamido) benzoate]
36 | A (A is inhibition above 30%) | CCCc1ccc(S(=O)(=O)Nc2ccccc2CC(=O)NC)cc1 [Compound A-41, N-methyl-2-(2-((4-propylphenyl)sulfonamido)phenyl)acetamide]
37 | D (D is inhibition of 0% to 10%) | CCCc1ccc(S(=O)(=O)Nc2ccccc2Cl)cc1 [Compound A-71, N-(2-chlorophenyl)-4-propylbenzenesulfonamide]
38 | D (D is inhibition of 0% to 10%) | CCCc1ccc(S(=O)(=O)Nc2cccc(NC(C)=O)c2)cc1 [Compound A-77, N-(3-((4-propylphenyl)sulfonamido)phenyl)acetamide]
39 | C (C is inhibition from 10% to 20%) | CCCc1ccc(S(=O)(=O)Nc2ccc(F)cc2C(=O)O)cc1 [Compound A-43, 5-fluoro-2-((4-propylphenyl)sulfonamido) benzoic acid]
